Data as given in PMC7932521, “2-aminobenzimidazoles for leishmaniasis: From initial hit discovery to in vivo profiling” (PLoS Neglected Tropical Diseases, 2021).
pIC50: −log10 of the molar value.

tested on: Leishmania infantum MHOM/MA(BE)/67/ITMAP263 amastigotes; assay: L. infantum intracellular amastigote assay in PMM; assay type: cell-based; settings: CC50 / L. infantum IC50
Procedure: (§1) Leishmania infantum MHOM/MA(BE)/67/ITMAP263 amastigotes were collected from the spleen of infected donor Golden hamsters. Primary peritoneal mouse macrophages (PMM) were used as host cells for in vitro assays. PMM were collected from Swiss mice after 2 days of peritoneal stimulation with a 2% suspension of potato starch and maintained in RPMI-1640 medium supplemented with 200 mM L-glutamine, antibiotics and 5% FCS at 37°C and 5% CO2. Promastigotes of L. infantum chagasi (luciferase) (MHOM/BR/2005/NLC) obtained as described in Reimão et al.,[27] were grown in M199 medium supplemented with 10% FCS, 0.25% hemin, 32 μg/ml hygromycin and 2% sterile human urine at 25°C and 5% CO2.
(§2) Stock solutions of the compounds at 20 mM were prepared in 100% DMSO. Next, the compounds were serially pre-diluted in DMSO followed by a further dilution in demineralized water to assure a final in-test DMSO concentration below 1%. The compounds were tested at 4-fold dilutions starting at 64 μM.
For the antileishmania in vitro assays, 3×10^4 PMM/well were seeded in 96-well plates. After 24h, 5×10^5 amastigotes/well were added and incubated for 2h at 37°C. Next, the compounds in 4-fold serial dilutions were added and the plates were further incubated for 5 days (37°C, 5% CO2). Parasite burdens were assessed using an inverted microscope after Giemsa staining. The results were expressed as percent reduction in parasite burdens compared to negative control wells (100% growth) and IC50 values were determined. Values represent the geometric mean of at least two independent experiments. Miltefosine was used as the positive control in all plates.

Compound | SI: selectivity index (CC50 / IC50)
N#Cc1ccc2nc(NC(=O)c3ccnn3C3CC3)n(CC(F)(F)F)c2c1 [Compound 37, O=C(c1ccnn1C2CC2)Nc3nc(ccc(C#N)c4)c4n3CC(F)(F)F] | 5
CCN(CC)CCCn1c(NC(=O)c2ccnn2C)nc2ccc(C#N)cc21 [Compound 52, CCN(CC)CCCn1c(cc(C#N)cc2)c2nc1NC(c3ccnn3C)=O] | 1
Cn1cc(C(=O)Nc2nc3ccc(C#N)cc3n2CC(F)(F)F)cn1 [Compound 36, O=C(c1cn(C)nc1)Nc2nc(ccc(C#N)c3)c3n2CC(F)(F)F] | 2

same assay, conditions: Leishmania infantum, 120 h, intracellular amastigotes in PMM, 5 days; read-out: L. infantum IC50

Compound | pIC50
Cn1c(NC(=O)Cc2ccc(Cl)cc2)nc2ccccc21 [Compound 17, O=C(Nc1n(C)c(cccc2)c2n1)Cc3ccc(Cl)cc3] | 4.48
N#Cc1ccc2nc(NC(=O)c3ccnn3C3CC3)n(CC(F)(F)F)c2c1 [Compound 37, O=C(c1ccnn1C2CC2)Nc3nc(ccc(C#N)c4)c4n3CC(F)(F)F] | 5.00
CCN(CC)CCCn1c(NC(=O)c2ccnn2C)nc2ccc(C#N)cc21 [Compound 52, CCN(CC)CCCn1c(cc(C#N)cc2)c2nc1NC(c3ccnn3C)=O] | 4.24
Cn1cc(C(=O)Nc2nc3ccc(C#N)cc3n2CC(F)(F)F)cn1 [Compound 36, O=C(c1cn(C)nc1)Nc2nc(ccc(C#N)c3)c3n2CC(F)(F)F] | 5.06

same assay, conditions: Leishmania infantum, S1 Data; read-out: L. infantum IC50

Compound | pIC50
CCN(CC)CCCn1c(NC(=O)Cc2ccc(F)cc2)nc2ccc(C#N)cc21 [Compound 26, CCN(CC)CCCn1c(cc(C#N)cc2)c2nc1NC(Cc3ccc(F)cc3)=O] | < 4.19
Cn1c(NC(=O)Cc2ccc(Cl)cc2)nc2ccccc21 [Compound 17, O=C(Nc1n(C)c(cccc2)c2n1)Cc3ccc(Cl)cc3] | 4.49
N#Cc1ccc2nc(NC(=O)c3ccnn3C3CC3)n(CC(F)(F)F)c2c1 [Compound 37, O=C(c1ccnn1C2CC2)Nc3nc(ccc(C#N)c4)c4n3CC(F)(F)F] | 4.99
CCN(CC)CCCn1c(NC(=O)c2ccnn2C)nc2ccc(C#N)cc21 [Compound 52, CCN(CC)CCCn1c(cc(C#N)cc2)c2nc1NC(c3ccnn3C)=O] | 4.24
Cn1cc(C(=O)Nc2nc3ccc(C#N)cc3n2CC(F)(F)F)cn1 [Compound 36, O=C(c1cn(C)nc1)Nc2nc(ccc(C#N)c3)c3n2CC(F)(F)F] | 5.06

tested on: not listed separately; assay: Mouse liver microsomal stability; assay type: in vitro ADME; settings: CD1, mouse, liver microsomes, pH 7.4, S1 Data; read-out: MLM CLint
Procedure: The metabolic stability of the compounds was evaluated in human (pool of 200 donors, XenoTech) and mouse liver microsomes (CD1 mouse, GIBCO). Test compounds were prepared at a concentration of 0.5 μM and incubated with 0.25 mg/mL liver microsomes at pH 7.4 and 37°C. The reaction was started by addition of NADPH at […]. Samples were taken at 0, 5, 10, 15, 20 and 30 minutes. The reaction was stopped by the addition of acetonitrile:methanol (1:1) containing an internal standard (tolbutamide at 50 nM). Compounds were quantified by liquid chromatography triple quadrupole mass spectrometry (LC-MS/MS). Peak area ratios (analyte/internal standard) were converted to % remaining using the area ratio at time 0 as 100%. Half-life (t1/2 = ln(2)/k) in minutes and intrinsic clearance (Clint = k x 1000/(0.25)) in μL/min/mg were calculated using a non-linear regression from % remaining versus incubation time. From this plot, the slope (k) was determined. The analysis conditions were: analytical column (Gemini C18, […], Phenomenex), electrospray ionization source (ESI) in positive and negative mode, mobile phase A (water + 0.1% formic acid) and B (acetonitrile + 0.1% formic acid), flow rate of 0.7 mL/min.

Compound | microsomal CLint at 0.5 μM [µL/min/mg]
CCN(CC)CCCn1c(NC(=O)Cc2ccc(F)cc2)nc2ccc(C#N)cc21 [Compound 26, CCN(CC)CCCn1c(cc(C#N)cc2)c2nc1NC(Cc3ccc(F)cc3)=O] | 154
CCN(CC)CCCn1c(NC(=O)c2ccnn2C)nc2ccc(C#N)cc21 [Compound 52, CCN(CC)CCCn1c(cc(C#N)cc2)c2nc1NC(c3ccnn3C)=O] | 59

tested on: PMM (Primary Mouse Macrophages); assay: Cytotoxicity on primary peritoneal mouse macrophages; assay type: cell-based; settings: Mus musculus, Macrophage, read-out: PMM IC50
Procedure: as §1, §2

Compound | pIC50
CCN(CC)CCCn1c(NC(=O)Cc2ccc(F)cc2)nc2ccc(C#N)cc21 [Compound 26, CCN(CC)CCCn1c(cc(C#N)cc2)c2nc1NC(Cc3ccc(F)cc3)=O] | < 4.19
Cn1c(NC(=O)Cc2ccc(Cl)cc2)nc2ccccc21 [Compound 17, O=C(Nc1n(C)c(cccc2)c2n1)Cc3ccc(Cl)cc3] | 4.49
N#Cc1ccc2nc(NC(=O)c3ccnn3C3CC3)n(CC(F)(F)F)c2c1 [Compound 37, O=C(c1ccnn1C2CC2)Nc3nc(ccc(C#N)c4)c4n3CC(F)(F)F] | 4.34
CCN(CC)CCCn1c(NC(=O)c2ccnn2C)nc2ccc(C#N)cc21 [Compound 52, CCN(CC)CCCn1c(cc(C#N)cc2)c2nc1NC(c3ccnn3C)=O] | < 4.19
Cn1cc(C(=O)Nc2nc3ccc(C#N)cc3n2CC(F)(F)F)cn1 [Compound 36, O=C(c1cn(C)nc1)Nc2nc(ccc(C#N)c3)c3n2CC(F)(F)F] | 4.80

tested on: not listed separately; assay: MRC-5 cytotoxicity; assay type: cell-based; settings: human, MRC-5 cells; S1 Data

Compound | CC50 [µM]
CCN(CC)CCCn1c(NC(=O)Cc2ccc(F)cc2)nc2ccc(C#N)cc21 [Compound 26, CCN(CC)CCCn1c(cc(C#N)cc2)c2nc1NC(Cc3ccc(F)cc3)=O] | > 64
Cn1c(NC(=O)Cc2ccc(Cl)cc2)nc2ccccc21 [Compound 17, O=C(Nc1n(C)c(cccc2)c2n1)Cc3ccc(Cl)cc3] | > 64
N#Cc1ccc2nc(NC(=O)c3ccnn3C3CC3)n(CC(F)(F)F)c2c1 [Compound 37, O=C(c1ccnn1C2CC2)Nc3nc(ccc(C#N)c4)c4n3CC(F)(F)F] | 3
CCN(CC)CCCn1c(NC(=O)c2ccnn2C)nc2ccc(C#N)cc21 [Compound 52, CCN(CC)CCCn1c(cc(C#N)cc2)c2nc1NC(c3ccnn3C)=O] | > 64
Cn1cc(C(=O)Nc2nc3ccc(C#N)cc3n2CC(F)(F)F)cn1 [Compound 36, O=C(c1cn(C)nc1)Nc2nc(ccc(C#N)c3)c3n2CC(F)(F)F] | 56.1
